Results published in ChEMBL document CHEMBL3046957, “Synthesis of new oxadiazole derivatives as anti-inflammatory, analgesic, and antimicrobial agents” (2013).

Key:
Format in all cases: functional
Aspergillus niger [1] = assay: Antifungal activity against Aspergillus niger assessed as growth inhibition at 100 ug/mL after 24 hr by cup-plate method; details: read-out: DIZ
Aspergillus niger [2] = assay: Antifungal activity against Aspergillus niger assessed as growth inhibition at 50 ug/mL after 24 hr by cup-plate method; details: read-out: DIZ
Candida albicans [3] = assay: Antifungal activity against Candida albicans assessed as growth inhibition at 100 ug/mL after 24 hr by cup-plate method; details: read-out: DIZ
Candida albicans [4] = assay: Antifungal activity against Candida albicans assessed as growth inhibition at 50 ug/mL after 24 hr by cup-plate method; details: read-out: DIZ
Pseudomonas aeruginosa [5] = assay: Antibacterial activity against Pseudomonas aeruginosa assessed as growth inhibition at 100 ug/mL after 24 to 48 hr by cup-plate method; details: read-out: DIZ
Pseudomonas aeruginosa [6] = assay: Antibacterial activity against Pseudomonas aeruginosa assessed as growth inhibition at 50 ug/mL after 24 to 48 hr by cup-plate method; details: read-out: DIZ
Escherichia coli [7] = assay: Antibacterial activity against Escherichia coli assessed as growth inhibition at 100 ug/mL after 24 to 48 hr by cup-plate method; details: read-out: DIZ
Bacillus subtilis [8] = assay: Antibacterial activity against Bacillus subtilis assessed as growth inhibition at 100 ug/mL after 24 to 48 hr by cup-plate method; details: read-out: DIZ
Escherichia coli [9] = assay: Antibacterial activity against Escherichia coli assessed as growth inhibition at 50 ug/mL after 24 to 48 hr by cup-plate method; details: read-out: DIZ
Bacillus subtilis [10] = assay: Antibacterial activity against Bacillus subtilis assessed as growth inhibition at 50 ug/mL after 24 to 48 hr by cup-plate method; details: read-out: DIZ
Staphylococcus aureus [11] = assay: Antibacterial activity against Staphylococcus aureus assessed as growth inhibition at 100 ug/mL after 24 to 48 hr by cup-plate method; details: read-out: DIZ
Staphylococcus aureus [12] = assay: Antibacterial activity against Staphylococcus aureus assessed as growth inhibition at 50 ug/mL after 24 to 48 hr by cup-plate method; details: read-out: DIZ
Mus musculus [13] = assay: Analgesic activity in Swiss albino Mus musculus (mouse) assessed as latency time of heat-induced paw licking/jumping behaviour at 10 mg/kg after 4 hr by Eddy's hot plate method (reference value: 4.57 +/- 0.11 secs)
Mus musculus [14] = assay: Analgesic activity in Swiss albino Mus musculus (mouse) assessed as latency time of heat-induced paw licking/jumping behaviour at 10 mg/kg after 2 hr by Eddy's hot plate method (reference value: 4.86 +/- 0.18 secs)
Mus musculus [15] = assay: Analgesic activity in Swiss albino Mus musculus (mouse) assessed as latency time of heat-induced paw licking/jumping behaviour at 10 mg/kg after 1 hr by Eddy's hot plate method (reference value: 4.74 +/- 0.21 secs)
Mus musculus [16] = assay: Analgesic activity in Swiss albino Mus musculus (mouse) assessed as latency time of heat-induced paw licking/jumping behaviour at 10 mg/kg after 0.5 hr by Eddy's hot plate method (reference value: 4.17 +/- 0.04 secs)
Rattus norvegicus [17] = assay: Anti-inflammatory activity in Wistar albino Rattus norvegicus (rat) assessed as inhibition of carrageenan-induced paw edema at 10 mg/kg, po administered 30 min prior to carrageenan challenge measured after 3 hr by plethysmometric analysis relative to untreated control
Rattus norvegicus [18] = assay: Anti-inflammatory activity in Wistar albino Rattus norvegicus (rat) assessed as inhibition of carrageenan-induced paw edema at 10 mg/kg, po administered 30 min prior to carrageenan challenge measured after 2 hr by plethysmometric analysis relative to untreated control
Rattus norvegicus [19] = assay: Anti-inflammatory activity in Wistar albino Rattus norvegicus (rat) assessed as inhibition of carrageenan-induced paw edema at 10 mg/kg, po administered 30 min prior to carrageenan challenge measured after 1.5 hr by plethysmometric analysis relative to untreated control
Rattus norvegicus [20] = assay: Anti-inflammatory activity in Wistar albino Rattus norvegicus (rat) assessed as inhibition of carrageenan-induced paw edema at 10 mg/kg, po administered 30 min prior to carrageenan challenge measured after 1 hr by plethysmometric analysis relative to untreated control
Rattus norvegicus [21] = assay: Anti-inflammatory activity in Wistar albino Rattus norvegicus (rat) assessed as inhibition of carrageenan-induced paw edema at 10 mg/kg, po administered 30 min prior to carrageenan challenge measured after 0.5 hr by plethysmometric analysis relative to untreated control

Row | Structure (SMILES) | zone of inhibition at 100 µg/mL (Aspergillus niger [1]) | zone of inhibition at 50 µg/mL (Aspergillus niger [2]) | zone of inhibition at 100 µg/mL (Candida albicans [3]) | zone of inhibition at 50 µg/mL (Candida albicans [4]) | zone of inhibition at 100 µg/mL (Pseudomonas aeruginosa [5]) | zone of inhibition at 50 µg/mL (Pseudomonas aeruginosa [6]) | zone of inhibition at 100 µg/mL (Escherichia coli [7]) | zone of inhibition at 100 µg/mL (Bacillus subtilis [8]) | zone of inhibition at 50 µg/mL (Escherichia coli [9]) | zone of inhibition at 50 µg/mL (Bacillus subtilis [10]) | zone of inhibition at 100 µg/mL (Staphylococcus aureus [11]) | zone of inhibition at 50 µg/mL (Staphylococcus aureus [12]) | Time (Mus musculus [13]) | Time (Mus musculus [14]) | Time (Mus musculus [15]) | Time (Mus musculus [16]) | inhibition in vivo at 10 mg/kg (Rattus norvegicus [17]) | inhibition in vivo at 10 mg/kg (Rattus norvegicus [18]) | inhibition in vivo at 10 mg/kg (Rattus norvegicus [19]) | inhibition in vivo at 10 mg/kg (Rattus norvegicus [20]) | also measured
1 | COc1ccc(F)cc1-c1cccc(-c2nn(CCOC3CCCCO3)c(=O)o2)c1 (configuration not stated) | 11 mm | 8 mm | 9 mm | 9 mm | 21 mm | 18 mm | 16 mm | 15 mm | 9 mm | 11 mm | 14 mm | 9 mm | 4.21 s | 4.58 s | 4.21 s | 4.81 s | 65% | 56% | 44% | 32% | inhibition in vivo at 10 mg/kg (Rattus norvegicus [21]): 16%
2 | COc1ccc(F)cc1-c1cccc(-c2nn(CCOS(=O)(=O)c3ccc(F)cc3)c(=O)o2)c1 | 9 mm | 5 mm | 6 mm | 5 mm | 15 mm | 10 mm | 16 mm | 20 mm | 12 mm | 15 mm | 21 mm | 15 mm | 6.01 s | 6.17 s | 5.01 s | 4.91 s | 67% | 63% | 50% | 40% | inhibition in vivo at 10 mg/kg (Rattus norvegicus [21]): 24%
3 | COc1ccc(F)cc1-c1cccc(-c2nn(CCCN3C(=O)c4ccccc4C3=O)c(=O)o2)c1 | 10 mm | 7 mm | 10 mm | 6 mm | 19 mm | 13 mm | 18 mm | 18 mm | 15 mm | 13 mm | 16 mm | 10 mm | 4.01 s | 4.01 s | 4.11 s | 4.75 s | 64% | 61% | 49% | 30% | inhibition in vivo at 10 mg/kg (Rattus norvegicus [21]): 19%
4 | COc1ccc(F)cc1-c1cccc(-c2nn(CCCCF)c(=O)o2)c1 | 10 mm | 9 mm | 11 mm | 8 mm | 21 mm | 18 mm | 20 mm | 24 mm | 17 mm | 20 mm | 25 mm | 19 mm | 7.04 s | 7.88 s | 5.24 s | 5.55 s | 95% | 83% | 67% | 51% | inhibition in vivo at 10 mg/kg (Rattus norvegicus [21]): 36%
5 | COC1=CC(=O)C[C@@H](C)[C@]12Oc1c(Cl)c(OC)cc(OC)c1C2=O [GRISEOFULVIN] | 37 mm | 22 mm | 35 mm | 20 mm |  |  |  |  |  |  |  |  |  |  |  |  |  |  |  |  | 
6 | CC(C)=CCN1CCC2(C)c3cc(O)ccc3CC1C2C (configuration not stated) [PENTAZOCINE] |  |  |  |  |  |  |  |  |  |  |  |  | 7.85 s | 8.06 s | 5.93 s | 5.58 s |  |  |  |  | 
